Reference: US8962573B2 (INSERM (Institut National de la Sante et de la Recherche …, priority 2009, dated 2015)
Values joined by “and” are separate entries in the source; they are usually repeats but may differ in a detail not shown here. Identical values can stand only once. “Also recorded” adds a separate entry of the source. Like-named read-outs stand apart in the source and are kept apart here.

Tests used:
[1] = tested on: CI-M6PR; test: Binding assay to biotinylated CI-M6PR (displacement from adsorbed pentamannose 6-phosphate); details: for stability of affinity in buffer solution / binding affinity to CI-M6PR (in words): 20° C.
Description: The binding assays of the M6 Pa were performed using biotinylated CI-M6PR. Briefly, the CI-M6PR, purified on a phosphomannan-sepharose affinity column was biotinylated by N-hydroxysuccinimide biotin. The binding of the biotinylated CI-M6PR(CI-M6PRb) to pentamannose 6-phosphate (PMP) previously adsorbed on a microtitre plate was displaced by increasing concentrations of M6 Pa. The bound CI-M6PRb was then determined using the streptavidin/peroxidase couple and OPD substrate by optical density measurements. In control experiments the method was standardized by determining of the maximal concentration of the PMP adsorbed to the microtitre plate and the CI-M6PRb concentration required to saturate the adsorbed PMP [Jeanjean A et al., Bioorg Med Chem 14: 3575-82, 2006].
The binding assays of the cathD-AMFA-1 were performed using biotinylated CI-M6PR to the same protocol used for AMFA-1 binding assay, as detailed in section 1.2.

[2] = format: in vitro ADME
Description: (§1) Previous results have shown that a complex cathepsin D/anti-cathepsin D antibody was specifically internalised by CI-M6PR in normal human fibroblasts [Laurent-Matha V et al., J Cell Sci. 111: 2539-49, 1998]. The complex was here detected by immunofluorescence staining.
The binding affinity of AMFA-1, AMFA-2, AMFA-3 and AMFA-5 to CI-M6PR was determined at 20° C. (A) or in the presence of 75% human serum at 37° C. […] Methods are identical to 1.8 section.

[3] = FIG.15
Description: Table printed on a drawing sheet, FIG.15
(A) and in human serum (B).
First reader's note: Stability (%) matches the CI-M6PR binding affinity remaining at the last time point of incubation in human serum in the plot printed below the table.

[4] = tested on: MCF7; test: Cytotoxicity on breast cancer cell line MCF7; format: cell-based, human; details: data not shown
[5] = tested on: human normal fibroblast IMR-90 cell line; test: Cytotoxicity on human normal fibroblast cell line; format: cell-based; details: FIG. 14C
[6] = tested on: MDA-MB-231; test: Cytotoxicity on breast cancer cell line MDA-MB-231; format: cell-based, human; details: data not shown
[7] = target: T1, CI-M6PR (Homo sapiens, UniProt P11717); format: cell-based; details: pre-incubation with 10 mM
T1 construct: endogenous in cells; host or cells: normal human fibroblasts
T1 sequence (P11717 41-2491): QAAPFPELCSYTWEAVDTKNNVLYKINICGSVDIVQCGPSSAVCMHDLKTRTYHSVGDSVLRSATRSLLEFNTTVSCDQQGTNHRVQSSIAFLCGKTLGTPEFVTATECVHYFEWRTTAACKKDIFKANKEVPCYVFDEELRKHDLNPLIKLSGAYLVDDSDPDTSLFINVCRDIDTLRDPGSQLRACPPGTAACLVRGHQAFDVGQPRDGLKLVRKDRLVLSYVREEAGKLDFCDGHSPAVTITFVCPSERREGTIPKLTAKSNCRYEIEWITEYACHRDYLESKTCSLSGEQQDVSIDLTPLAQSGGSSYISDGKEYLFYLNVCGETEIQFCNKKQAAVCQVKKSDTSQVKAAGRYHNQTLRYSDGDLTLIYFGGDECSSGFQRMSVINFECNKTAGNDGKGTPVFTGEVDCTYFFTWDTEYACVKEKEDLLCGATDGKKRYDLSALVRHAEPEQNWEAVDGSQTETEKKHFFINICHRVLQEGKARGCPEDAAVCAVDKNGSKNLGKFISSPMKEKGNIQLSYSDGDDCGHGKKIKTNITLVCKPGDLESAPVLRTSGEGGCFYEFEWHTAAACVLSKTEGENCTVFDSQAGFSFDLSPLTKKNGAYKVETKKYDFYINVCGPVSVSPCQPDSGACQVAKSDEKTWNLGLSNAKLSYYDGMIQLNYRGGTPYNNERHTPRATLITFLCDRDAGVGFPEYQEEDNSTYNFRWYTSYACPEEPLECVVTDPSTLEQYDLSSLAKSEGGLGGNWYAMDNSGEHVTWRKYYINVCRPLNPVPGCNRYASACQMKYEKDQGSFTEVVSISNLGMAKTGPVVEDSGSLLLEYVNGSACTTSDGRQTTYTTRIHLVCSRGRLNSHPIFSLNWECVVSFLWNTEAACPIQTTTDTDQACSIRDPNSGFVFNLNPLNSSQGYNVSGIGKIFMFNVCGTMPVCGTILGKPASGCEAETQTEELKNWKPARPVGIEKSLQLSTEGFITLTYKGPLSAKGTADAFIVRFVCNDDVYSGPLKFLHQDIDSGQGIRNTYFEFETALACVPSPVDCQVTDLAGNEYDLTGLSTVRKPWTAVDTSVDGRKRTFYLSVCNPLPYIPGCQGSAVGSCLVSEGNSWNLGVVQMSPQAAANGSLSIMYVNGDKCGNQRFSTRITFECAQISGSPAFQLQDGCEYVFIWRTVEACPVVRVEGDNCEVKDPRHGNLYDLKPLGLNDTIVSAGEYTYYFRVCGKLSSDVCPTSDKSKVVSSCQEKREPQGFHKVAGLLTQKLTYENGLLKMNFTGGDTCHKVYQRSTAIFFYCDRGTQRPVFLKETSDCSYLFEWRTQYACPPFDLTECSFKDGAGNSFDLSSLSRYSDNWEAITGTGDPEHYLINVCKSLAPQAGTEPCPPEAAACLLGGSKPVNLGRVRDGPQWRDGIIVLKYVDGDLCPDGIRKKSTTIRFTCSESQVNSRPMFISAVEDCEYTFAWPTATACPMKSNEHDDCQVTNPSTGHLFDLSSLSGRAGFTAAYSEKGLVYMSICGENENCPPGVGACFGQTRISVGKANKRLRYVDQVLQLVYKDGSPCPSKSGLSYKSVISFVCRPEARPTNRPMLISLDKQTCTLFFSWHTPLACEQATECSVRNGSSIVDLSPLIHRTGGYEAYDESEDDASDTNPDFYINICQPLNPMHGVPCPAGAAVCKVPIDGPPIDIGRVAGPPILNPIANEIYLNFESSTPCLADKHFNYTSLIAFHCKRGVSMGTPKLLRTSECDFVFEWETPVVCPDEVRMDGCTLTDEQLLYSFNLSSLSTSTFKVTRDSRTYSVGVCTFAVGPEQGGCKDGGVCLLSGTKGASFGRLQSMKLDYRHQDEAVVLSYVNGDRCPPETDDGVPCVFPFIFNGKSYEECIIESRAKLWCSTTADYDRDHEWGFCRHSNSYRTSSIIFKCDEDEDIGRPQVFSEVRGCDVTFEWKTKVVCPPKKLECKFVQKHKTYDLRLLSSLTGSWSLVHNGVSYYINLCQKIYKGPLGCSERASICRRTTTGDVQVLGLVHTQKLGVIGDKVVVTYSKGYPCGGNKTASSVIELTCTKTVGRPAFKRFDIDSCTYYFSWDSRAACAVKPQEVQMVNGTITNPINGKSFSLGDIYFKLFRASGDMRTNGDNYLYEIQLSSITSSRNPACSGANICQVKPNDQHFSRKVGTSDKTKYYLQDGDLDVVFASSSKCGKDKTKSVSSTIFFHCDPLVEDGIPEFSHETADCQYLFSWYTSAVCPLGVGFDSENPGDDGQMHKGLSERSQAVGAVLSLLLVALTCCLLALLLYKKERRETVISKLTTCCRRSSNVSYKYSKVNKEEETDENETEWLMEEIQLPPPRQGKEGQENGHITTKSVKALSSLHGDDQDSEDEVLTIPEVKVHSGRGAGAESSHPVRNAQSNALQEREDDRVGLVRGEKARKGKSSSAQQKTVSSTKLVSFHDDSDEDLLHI
Description: (§2) As observed at light microscopy, 100 ng/mL neoIDUA was already internalised by MPSI fibroblasts from Scheie patient after 3 h incubation (FIG. 17 B-E). […] Glyceraldehyde 3-phosphate dehydrogenase (GAPDH) immunodetection was used as an internal control for total protein loading.

[8] = target: T1, CI-M6PR; test: Endocytosis of cathepsin D/anti-cathepsin D antibody complex via CI-M6PR in normal human fibroblasts (immunofluorescence); format: cell-based; details: cells pre-incubated with 10 mM; control cells 80%
Excerpt: as §1

[9] = tested on: Hurler fibroblasts; test: Viability of Hurler fibroblasts (MTT assay); format: cell-based, human; details: 100-500 ng/mL
Description: Cell viability was evaluated by MTT assay [Maynadier et al. FASEB J, 22: 671-81, 2008].

[10] = tested on: Hurler patient fibroblasts; test: Secreted GAG in culture medium of Hurler patient fibroblasts (Blyscan kit); format: cell-based, human
[11] = tested on: Homozygous IDUA −/− mice; test: Therapeutic efficacy in mucopolysaccharidosis I (MPSI) mouse model, urinary GAG; format: in vivo; details: 0.16 mg/kg body weight/week intravenously, 6 weeks; Mean ± SD
Description: Homozygous IDUA −/− mice (6-8 week-old) were treated intravenously with vehicle alone (control) or with 0.16 mg neoIDUA/kg body weight/week for 6 weeks. The secreted GAG were assayed in urine after 6 injections and normalized to urine creatinine concentrations using methods previously described [Barbosa et al., Glycobiology Adv. Access 13: 647-53, 2003].

[12] = tested on: MPSI fibroblasts from Scheie patient; test: neoIDUA cell internalisation in MPSI fibroblasts; format: cell-based, human
Description: as §2

## 5-hydrazinocarbonylpentyl 6-phosphate-α-D-mannopyranoside disodium salt [M6P-hexanehydrazide, reference compound]
[1]
  stability of affinity in buffer solution: stable affinity
[2]; 75% human serum at 37° C., after 7-8 h
  decrease of affinity in human serum: ~50%
[2]; 75% human serum at 37° C., after 16 h
  decrease of affinity in human serum: 84%

## 5-hydrazinocarbonylpentyl 6-phosphate-α-D-mannopyranoside disodium salt [M6P-hexanehydrazide]
[3]
  Stability (%): 16%

## NNC(=O)CCCCCO[C@H]1O[C@H](CCP(=O)(O)O)[C@@H](O)[C@H](O)[C@@H]1O.[Na].[Na] [AMFA-1, 5-hydrazinocarbonylpentyl 6-deoxy-6-dihydroxyphosphinylmethyl-α-D-mannopyranoside disodium salt]
[4]
  toxicity in human breast cancer cell line MCF7: no toxicity
[1]
  binding affinity to CI-M6PR (in words): high binding affinity
[1]; FIG. 1, FIG. 14
  binding affinity for CI-M6PR (comparison in words): identical to those of phosphonate 1 alone
[5]
  toxicity in human fibroblasts: absence of toxicity
[2]; 75% (v/v) human serum, disodium salt
  stability in human serum (in words): identical to those of phosphonate 1 alone; also recorded: stable
[6]
  toxicity in human breast cancer cell line MDA: no toxicity
[7]
  effect on uptake of neoIDUA by the cells: totally prevented

## NNC(=O)CCn1cc(CO[C@H]2O[C@H](CCP(=O)(O)O)[C@@H](O)[C@H](O)[C@@H]2O)nn1.[Na].[Na] [AMFA-2, Disodium salt of (Hydrazinocarbonylethyl)-1H-1,2,3-triazol-4-yl-methyl 6-Deoxy-6-dihydroxyphosphinylmethylene-α-D-mannopyranoside]
[3]
  Stability (%): 90%
[1]
  binding affinity to CI-M6PR (in words): high binding affinity
[2]
  stability in human serum (in words): stable

## NOCCO[C@H]1O[C@H](CCP(=O)(O)O)[C@@H](O)[C@H](O)[C@@H]1O.[Na].[Na] [AMFA-3, Disodium salt of 2-(aminoxy)ethyl 6-deoxy-6-dihydroxyphosphinylmethylene-α-D-mannopyranoside]
[3]
  Stability (%): 91%
[1]
  binding affinity to CI-M6PR (in words): high binding affinity
[2]
  stability in human serum (in words): stable

## COC(=O)CCCCCO[C@H]1O[C@H](CC(C(=O)[O-])C(=O)[O-])[C@@H](O)[C@H](O)[C@@H]1O.[Na+].[Na+] [AMFA-5, [5-methoxycarbonylpentyl 6,7-dideoxy-7-(carboxy)-α-D-manno-octopyranoside]uronate disodium salt]
[3]
  Stability (%): 90%
[1]
  binding affinity to CI-M6PR (in words): high binding affinity
[2]
  stability in human serum (in words): stable

## O=C[C@@H](O)[C@@H](O)[C@H](O)[C@H](O)COP(=O)(O)O [M6P, mannose 6-phosphate, reference compound]
[8]
  cells that internalized the cathepsin D/anti-cathepsin D antibody complex: 30%
[1]
  stability of affinity in buffer solution: stable affinity
[2]; human
  decrease of affinity in human serum: ~50%
[2]; human, 16 h
  decrease of affinity in human serum: 100%
[7]
  effect on uptake of neoIDUA by the cells: strongly decreased

## O=C[C@@H](O)[C@@H](O)[C@H](O)[C@H](O)COP(=O)(O)O [M6P, mannose 6-phosphate]
[3]
  Stability (%): 0%

## natural cathepsin D: human lysosomal enzyme, high affinity ligand for CI-M6PR with bisphosphorylated chains
[1]; FIG. 16A, read-out: affinity for CI-M6PR (Kd)
  Kd: 15 nM

B1: IDUA-AMFA-1: recombinant α-L-iduronidase from baculovirus/Sf9 cells coupled to AMFA-1 (conjugate, UniProt P35475 28-653, looked up)
Alpha-L-iduronidase: APHLVHVDAARALWPLRRFWRSTGFCPPLPHSQADQYVLSWDQQLNLAYVGAVPHRGIKQVRTHWLLELVTTRGSTGRGLSYNFTHLDGYLDLLRENQLLPGFELMGSASGHFTDFEDKQQVFEWKDLVSSLARRYIGRYGLAHVSKWNFETWNEPDHHDFDNVSMTMQGFLNYYDACSEGLRAASPALRLGGPGDSFHTPPRSPLSWGLLRHCHDGTNFFTGEAGVRLDYISLHRKGARSSISILEQEKVVAQQIRQLFPKFADTPIYNDEADPLVGWSLPQPWRADVTYAAMVVKVIAQHQNLLLANTTSAFPYALLSNDNAFLSYHPHPFAQRTLTARFQVNNTRPPHVQLLRKPVLTAMGLLALLDEEQLWAEVSQAGTVLDSNHTVGVLASAHRPQGPADAWRAAVLIYASDDTRAHPNRSVAVTLRLRGVPPGPGLVYVTRYLDNGLCSPDGEWRRLGRPVFPTAEQFRRMRAAEDPVAAAPRPLPAGGRLTLRPALRLPSLLLVHVCARPEKPPGQVTRLRALPLTQGQLVLVWSDEHVGSKCLWTYEIQFSQDGKAYTPVSRKPSTFNLFVFSPDTGAVSGSYRVRALDYWARPGPFSDPVPYLEVPVPRGPPSPGNP
modifications: coupled to AMFA-1
[9]
  toxicity on Hurler fibroblasts: not toxic
[9]; 72 h
  cell viability: slightly potentiate cell viability
[10]; 24 h treatment, control 0.018
  Secreted GAG concentrations in culture medium: 0.009 µg/mL
[10]; 48 h treatment, control 0.022
  Secreted GAG concentrations in culture medium: 0.016 µg/mL
[10]; 72 h treatment, control 0.032
  Secreted GAG concentrations in culture medium: 0.018 µg/mL
[10]; from 24 to 72 h
  reduction of GAG secretion: up to 50%
[11]
  Secreted GAG concentrations/creatinine concentrations in urine: 59.8 % control and 59.8 ± 9.0 % control
[12]; 100 ng/mL, 3 h incubation, Scheie patient
  internalisation by MPSI fibroblasts (light microscopy): internalised
[12]; after 24 h incubation
  internalization in cell extracts (Western Blot): demonstrated
